Assay [1] has as its system PC3 cells. Description: Antiproliferative evaluation, CyQuant assay, PC3. Particulars: exponentially growing cells, 48 h incubation, read-out: IC50, growth inhibition, PC3, prostate. Format: cell-based, human. How it is done:
(§1) FIG. 2 is a graphical depiction of the results of an antiproliferative evaluation of compound I against the following cancer cell lines: DU145, PC3, BT549, HeLa, MDA-MB-231, A549, and MCF-7. Cells growing exponentially in 48-well plates were incubated with different concentrations of compound I for 48 h. The increases in cell numbers were determined by the CyQuant assay and are expressed as a percentage of the increase in control wells with the vehicle (0.1% ethanol). The results are the average+SD from six different wells.
(§2) FIG. 3 is a graphical depiction of the results of an antiproliferative evaluation of compound II against the following cancer cell lines: DU145, PC3, BT549, HeLa, MDA-MB-231, A549, and MCF-7. Cells growing exponentially in 48-well plates were incubated with different concentrations of compound II for 48 h. The increases in cell numbers were determined by the CyQuant assay and are expressed as a percentage of the increase in control wells with the vehicle (0.1% ethanol). The results are the average+SD from six different wells.
(§3) FIG. 4 is a graphical depiction of the results of an antiproliferative evaluation of compound III against the following cancer cell lines: DU145, PC3, BT549, HeLa, MDA-MB-231, A549, and MCF-7. Cells growing exponentially in 48-well plates were incubated with different concentrations of compound III for 48 h. The increases in cell numbers were determined by the CyQuant assay and are expressed as a percentage of the increase in control wells with the vehicle (0.1% ethanol). The results are the average+SD from six different wells.
(§4) FIG. 5 is a graphical depiction of the results of an antiproliferative evaluation of compound IV against the following cancer cell lines: DU145, PC3, BT549, HeLa, MDA-MB-231, A549, and MCF-7. Cells growing exponentially in 48-well plates were incubated with different concentrations of compound IV for 48 h. The increases in cell numbers were determined by the CyQuant assay and are expressed as a percentage of the increase in control wells with the vehicle (0.1% ethanol). The results are the average+SD from six different wells.
(§5) FIG. 6 is a graphical depiction of the results of an antiproliferative evaluation of compound V against the following cancer cell lines: DU145, PC3, BT549, HeLa, MDA-MB-231, A549, and MCF-7. Cells growing exponentially in 48-well plates were incubated with different concentrations of compound V for 48 h. The increases in cell numbers were determined by the CyQuant assay and are expressed as a percentage of the increase in control wells with the vehicle (0.1% ethanol). The results are the average+SD from six different wells.
(§6) We screened the compounds against a panel of human cancer cell lines derived from a number of tissues. […]

The test system of assay [2] is A549 cells. As to the kind of experiment: Antiproliferative evaluation, CyQuant assay, A549. Format: cell-based, human. The note with it: exponentially growing cells, 48 h incubation, read-out: IC50, growth inhibition, A549, lung. How it is done:
as §1, §2, §3, §4
(§7) FIG. 6 is a graphical depiction of the results of an antiproliferative evaluation of compound V against the following cancer cell lines: DU145, PC3, BT549, HeLa, MDA-MB-231, A549, and MCF-7. Cells growing exponentially in 48-well plates were incubated with different concentrations of compound V for 48 h. The increases in cell numbers were determined by the CyQuant assay and are expressed as a percentage of the increase in control wells with the vehicle (0.1% ethanol). The results are the average+SD from six different wells. […]

Assay [3] relates to DU145 cells. Description: Antiproliferative evaluation, CyQuant assay, DU145. Format: cell-based, human. Particulars: exponentially growing cells, 48 h incubation, read-out: IC50, growth inhibition, DU145, prostate. How it is done:
as §1, §2, §3, §4, §5, §6

Assay [4] deals with prostate cancer cells (DU145, PC3) relative to other cancer cell lines. Description: Prostate cancer cell selectivity across the panel of human cancer cell lines. Particulars: prostate lines versus other cancer cell lines, 48 h. Type of assay: cell-based. The source says:
(§8) We screened the compounds against a panel of human cancer cell lines derived from a number of tissues. These were breast (MCF-7, BT549, SKBr3, MDA-MB-231), lung (A549), cervix (HeLa), and prostate (DU145, PC3) cancer cell lines. […] In some cases, the IC50 values were much lower than values reported for ET-18-OCH3, indicative of a greater degree of potency of these new compounds. The most striking observation is that the greatest inhibition of cell growth was found when the two prostate cell lines, DU145 and PC3, were treated with these compounds. […] Because hormone-insensitive prostate cancer cells are highly sensitive to the active compounds described herein, (compounds I, II, and III), we postulate that it may be possible to selectively kill prostate cancer cells with low concentrations without harming other cells in the body. The prostate selectivity observed with compound I was also observed with compounds II and III (Table 1 and FIGS. 3 and 4) and distinguishes these compounds from other antitumor compounds.

Assay [5] has as its system MCF-7 cells. Description: Antiproliferative evaluation, CyQuant assay, MCF-7. Format: cell-based, human. The note with it: exponentially growing cells, 48 h incubation, read-out: IC50, growth inhibition, MCF-7, breast. How it is done: as §1, §2, §3, §4, §7
The subject of assay [6] is SK-N-MC cells. The note with it: read-out: IC50, antiproliferative effect, SK-N-MC (neuronal); proliferating cells, 0-20 μM, 48 h, CyQuant assay. How it is done:
(§9) Specifically, proliferating cells in 48-well plates were incubated with 0-20 μM of the compound for 48 hours. The cell numbers present were determined by the CyQuant™ assay (Invitrogen), and the increase in numbers were expressed relative to the controls receiving only the vehicle (0.1% ethanol).
(§10) Proliferating cells in 48-well plates were incubated with 0-20 μM of the compound for 48 h. The cell numbers present were determined by the CyQuant™ assay (Invitrogen), and the increase in numbers were expressed relative to the controls receiving only the vehicle (0.1% ethanol).

Assay [7] has as its system SK-N-SH cells. The note with it: read-out: IC50, antiproliferative effect, SK-N-SH (neuronal); proliferating cells, 0-20 μM, 48 h, CyQuant assay. How it is done:
as §9, §10

Assay [8] relates to HepG2 cells. Particulars: read-out: IC50, antiproliferative effect, HepG2 (liver); proliferating cells, 0-20 μM, 48 h, CyQuant assay. How it is done: as §9, §10
Assay [9] relates to DU145 cells. As to the kind of experiment: Toxicity (loss of viability) to DU145 cells. Type of assay: cell-based, human.
Source text: as §8

Assay [10] relates to HeLa cells. Description: Antiproliferative evaluation, CyQuant assay, HeLa. Type of assay: cell-based, human. Particulars: exponentially growing cells, 48 h incubation, read-out: IC50, growth inhibition, HeLa, cervix. How it is done: as §1
(§11) FIG. 3 is a graphical depiction of the results of an antiproliferative evaluation of compound II against the following cancer cell lines: DU145, PC3, BT549, HeLa, MDA-MB-231, A549, and MCF-7. Cells growing exponentially in 48-well plates were incubated with different concentrations of compound II for 48 h. The increases in cell numbers were determined by the CyQuant assay and are expressed as a percentage of the increase in control wells with the vehicle (0.1% ethanol). […]
(§12) FIG. 4 is a graphical depiction of the results of an antiproliferative evaluation of compound III against the following cancer cell lines: DU145, PC3, BT549, HeLa, MDA-MB-231, A549, and MCF-7. […] The increases in cell numbers were determined by the CyQuant assay and are expressed as a percentage of the increase in control wells with the vehicle (0.1% ethanol). […]
(§13) FIG. 5 is a graphical depiction of the results of an antiproliferative evaluation of compound IV against the following cancer cell lines: DU145, PC3, BT549, HeLa, MDA-MB-231, A549, and MCF-7. […] The increases in cell numbers were determined by the CyQuant assay and are expressed as a percentage of the increase in control wells with the vehicle (0.1% ethanol). […]
(§14) FIG. 6 is a graphical depiction of the results of an antiproliferative evaluation of compound V against the following cancer cell lines: DU145, PC3, BT549, HeLa, MDA-MB-231, A549, and MCF-7. […] The increases in cell numbers were determined by the CyQuant assay and are expressed as a percentage of the increase in control wells with the vehicle (0.1% ethanol). […]

Assay [11] has as its system MDA-MB-231 cells. As to the kind of experiment: Antiproliferative evaluation, CyQuant assay, MDA-MB-231. Format: cell-based, human. Particulars: exponentially growing cells, 48 h incubation, read-out: IC50, growth inhibition, MDA-MB-231, breast. How it is done:
as §1, §11, §12, §13, §14

Assay [12] relates to BT549 cells. Description: Antiproliferative evaluation, CyQuant assay, BT549. Format: cell-based, human. The note with it: exponentially growing cells, 48 h incubation, read-out: IC50, growth inhibition, BT549, breast. How it is done:
as §1, §11, §12, §13, §14

“And” between values parts separate entries of the source, which are not always exact repeats. Equal entries are not always repeated. Where only a bound is given, the exact number is not on record here.

Take “1-O-(7-N, N-dimethylamino-3-pentadecanoyl-1-napthyl)-2-O-methyl-sn-glycero-3-phosphocholine”: the IC50 is 1.9 µM in [1]; more than 20 µM in [2]; 3.5 µM in assay [3]; more than 20 µM in assay [5]; more than 20 µM in assay [6]; less than 20 µM in assay [7]. The IC50 in [8] is more than 20 µM. The “prostate cancer cell selectivity” value in [4] is reported as “highly selective for prostate cancer cells”.

Turning to `CCCCCCCCCCCCCCCCOC[C@@H](CCP(=O)([O-])OCC[N+](C)(C)C)OC(=O)NC` [Compound I, 2′-(trimethylammonio)ethyl 4-hexadecyloxy-3(R)—N-methylcarbamoyl-1-butanephosphonate], in [9], the “concentration toxic to the cells (loss of viability)” value stood at 2.5 µM. Moreover, the IC50 in assay [1] is 1.2 µM; in assay [10] it was 3.3 µM; in assay [2] it was 10.7 µM; in [3], 1 µM and 1.2 µM; in assay [5], 4 µM; in assay [11] it was 3.7 µM. The IC50 in assay [12] was 4.4 µM.

As to `CCCCCCCCCCCCCCCCOC[C@H](CCP(=O)([O-])OCC[N+](C)(C)C)OC(=O)NC` [Compound II, 2′-(trimethylammonio)ethyl 4-hexadecyloxy-3(S)—N-methylcarbamoyl-1-butane-phosphonate], the IC50 in assay [1] is 2.5 µM; in assay [10], 7.9 µM; in assay [2] it was more than 20 µM; in assay [3] it was 2.1 µM; in [5], 10.1 µM; in assay [11], 6.1 µM. Besides, the IC50 in [12] is 6.8 µM.

As to `CCCCCCCCCCCCCCCCOC[C@@H](COP(=O)([O-])OCC[N+](C)(C)C)NC(=O)OC` [Compound III, 2′-(trimethylammonio)ethyl 2(S)—(N-methoxycarbonylamido)-3-hexadecyloxypropanephosphate], the IC50 in [1] is 1.9 µM; in assay [10], 19.3 µM; in [2], more than 20 µM; in assay [3], 2.4 µM; in [5], 9.1 µM; in assay [11], 10.5 µM. The IC50 in assay [12] was 13.4 µM. For the same compound, the “prostate cancer cell selectivity” value in [4] is “greatest prostate cancer cell selectivity”.
